One series has as its system HCM patients. Nature of the series: Meta-analysis of QTc across clinical studies. It counts as in vivo, human. The note with it: therapeutic exposure range. The text has this: The effect of coadministration of MAVACAMTEN with QT-prolonging drugs or in patients with potassium channel variants resulting in a long QT interval have not been characterized.
Series [1] addresses T1, CYP2C19 (Homo sapiens, UniProt P33261). The series is described as follows: Metabolism, contribution of CYP2C19. It counts as in vitro ADME. The text has this: (§1) Mavacamten is extensively metabolized, primarily through CYP2C19 (74%), CYP3A4 (18%), and CYP2C9 (8%).
(§2) Statement of Purpose: Mavacamten is a first-in-class, selective, allosteric, and reversible cardiac myosin inhibitor in development for the treatment of adults with symptomatic obstructive hypertrophic cardiomyopathy. Mavacamten is hepatically metabolized predominantly via CYP2C19 (74%), CYP3A4 (18%) and CYP2C9 (8%). A previously developed fit-for-purpose physiologically based pharmacokinetic (PBPK) model was applied to explore the induction effects of a strong CYP3A4/CYP2C19 inducer-rifampin, as well as a strong CYP3A4 inducer-carbamazepine, on mavacamten exposures.

In a further series the target is CYP2C9 (Homo sapiens, UniProt P11712). The series is described as follows: Metabolism, contribution of CYP2C9. The format is in vitro ADME.
Excerpt: as §1, §2

The next series deals with CYP2B6 (Homo sapiens, UniProt P20813). The series is described as follows: In vitro CYP inhibition. It counts as in vitro ADME. The source says:
Mavacamten is a CYP2B6 inducer.

For another series, the target named is CYP3A4 (Homo sapiens, UniProt P08684). Nature of the series: Metabolism, contribution of CYP3A4. The format is in vitro ADME.
Excerpt: as §1, §2

The target in series [2] is T1, CYP2C19. The series is described as follows: Clinical DDI with weak CYP2C19 inhibitor omeprazole. It counts as in vivo. Also on record: host or cells: in silico (Simcyp v19). The note with it: mavacamten 15 mg with omeprazole 20 mg once daily; healthy CYP2C19 NMs and RMs.
Another series has as its system dogs. The series is described as follows: Animal toxicology, dogs. It counts as in vivo. How it is done:
The safety of mavacamten has been evaluated in rats and dogs at multiple dose levels (0.06 to 10 mg/kg/day) orally. […] Plasma exposures (AUC) at the NOAEL in rats and dogs were 0.1 and 0.3 times, respectively, human exposure (AUC) at the MRHD.

For a further series, the system named is virtual oHCM patients. The series is described as follows: Exposure-response simulation of titration Regimen #2. Also on record: species or system human. The following applies: CYP2C19 phenotype distribution in the EU population. The text has this:
Mavacamten has substantial pharmacokinetic (PK) variability, the largest contributor being CYP2C19 phenotype. Beyond phenotype, and after incorporation of all PK covariates, a moderate inter-individual variability remains. As a result of the PK variability, there is a need to achieve an ideal balance of reducing the Valsalva left ventricular outflow tract gradient (VLVOT) while maintaining the patient's left ventricular ejection fraction (LVEF), and an echocardiogram (ECHO) based titration regimen was developed. Modeling and simulation analyses have been undertaken to further evaluate dose titration by CYP2C19 phenotype.
In addition, an exposure-response simulation-based approach was utilized to investigate multiple titration regimens using an equal distribution of CYP2C19 phenotype to allow for additional sensitivity in assessing the performance of the titration regimen for each phenotype. The evaluations included genotype specific dosing and titration, adjusted starting dose of 2.5 mg and additional monitoring intervals. For each posology investigated, the key objectives remained consistent: to limit the percent (%) of simulated patients experiencing LVEF <50%, while gradually up-titrating them to achieve VLVOT <30 mmHg. This Example outlines the evaluation of 3 titration regimens, described below.
The methods used to conduct the simulations are described as follows. […]

A short description of series [3]: Clinical pharmacokinetics. The format is in vivo, human. How it is done:
At the same dose level of MAVACAMTEN, 170% higher exposures of mavacamten are observed in patients with HCM compared to healthy subjects.
The Tmax was increased by 4 hours.
Mavacamten has a variable terminal t1/2 that depends on CYP2C19 metabolic status. […] Drug accumulation occurs with an accumulation ratio of about 2-fold for Cmax and about 7-fold for AUC in CYP2C19 NMs. The accumulation depends on the metabolism status for CYP2C19 with the largest accumulation observed in CYP2C19 PMs. At steady-state, the peak-to-trough plasma concentration ratio with once daily dosing is approximately 1.5.
Following a single 25 mg dose of radiolabeled mavacamten, 7% of the dose was recovered in feces (1% unchanged) and 85% in urine (3% unchanged).
The effects of severe (eGFR: 15 to 30 mL/min/1.73 m^2) renal impairment and kidney failure (eGFR: <15 mL/min/1.73 m^2; including patients on dialysis) are unknown.

Here are results for 1 compound from patent US20250360132A1, “METHODS OF ADMINISTERING MYOSIN INHIBITORS” (MYOKARDIA, INC., priority 2022, published 2025).

T1 sequence (P33261 whole entry): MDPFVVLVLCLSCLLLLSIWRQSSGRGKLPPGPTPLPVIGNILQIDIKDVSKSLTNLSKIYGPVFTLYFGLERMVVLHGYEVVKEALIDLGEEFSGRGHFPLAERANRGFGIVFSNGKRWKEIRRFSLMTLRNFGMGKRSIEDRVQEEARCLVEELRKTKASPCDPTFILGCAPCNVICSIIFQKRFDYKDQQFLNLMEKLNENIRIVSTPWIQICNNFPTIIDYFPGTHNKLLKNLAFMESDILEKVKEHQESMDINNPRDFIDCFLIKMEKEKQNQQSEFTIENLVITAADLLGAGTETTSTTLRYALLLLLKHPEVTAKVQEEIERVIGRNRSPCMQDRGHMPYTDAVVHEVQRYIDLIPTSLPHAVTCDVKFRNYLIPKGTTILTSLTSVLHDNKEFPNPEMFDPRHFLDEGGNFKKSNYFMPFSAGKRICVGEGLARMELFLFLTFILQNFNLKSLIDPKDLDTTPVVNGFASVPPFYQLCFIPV
Sequence of CYP2B6 (P20813 whole entry): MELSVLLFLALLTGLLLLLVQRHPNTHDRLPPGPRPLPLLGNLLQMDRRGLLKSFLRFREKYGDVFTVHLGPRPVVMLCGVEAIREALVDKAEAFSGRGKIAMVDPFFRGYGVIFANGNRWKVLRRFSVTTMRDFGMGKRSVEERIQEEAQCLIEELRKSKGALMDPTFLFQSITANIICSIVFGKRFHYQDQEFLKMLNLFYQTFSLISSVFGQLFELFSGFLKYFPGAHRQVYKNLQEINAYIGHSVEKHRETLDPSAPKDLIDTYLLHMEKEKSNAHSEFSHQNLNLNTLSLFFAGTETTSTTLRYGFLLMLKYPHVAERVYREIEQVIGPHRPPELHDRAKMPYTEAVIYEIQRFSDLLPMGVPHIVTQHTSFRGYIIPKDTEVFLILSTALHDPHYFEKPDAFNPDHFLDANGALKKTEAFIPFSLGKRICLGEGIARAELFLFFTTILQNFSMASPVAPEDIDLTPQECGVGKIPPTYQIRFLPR
Sequence of CYP2C9 (P11712 whole entry): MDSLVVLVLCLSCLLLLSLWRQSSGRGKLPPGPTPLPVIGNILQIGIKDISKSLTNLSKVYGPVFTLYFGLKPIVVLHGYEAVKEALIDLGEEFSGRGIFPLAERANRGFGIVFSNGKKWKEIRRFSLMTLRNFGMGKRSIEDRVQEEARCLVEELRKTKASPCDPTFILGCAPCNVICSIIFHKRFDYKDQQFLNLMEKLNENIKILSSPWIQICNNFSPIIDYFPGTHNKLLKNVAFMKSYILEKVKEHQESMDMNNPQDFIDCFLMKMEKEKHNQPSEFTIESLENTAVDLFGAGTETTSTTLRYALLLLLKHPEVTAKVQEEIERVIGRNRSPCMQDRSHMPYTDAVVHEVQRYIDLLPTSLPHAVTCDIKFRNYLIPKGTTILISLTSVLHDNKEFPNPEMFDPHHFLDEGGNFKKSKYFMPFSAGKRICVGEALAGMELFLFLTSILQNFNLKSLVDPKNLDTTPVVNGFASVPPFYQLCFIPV
Sequence of CYP3A4 (P08684 whole entry): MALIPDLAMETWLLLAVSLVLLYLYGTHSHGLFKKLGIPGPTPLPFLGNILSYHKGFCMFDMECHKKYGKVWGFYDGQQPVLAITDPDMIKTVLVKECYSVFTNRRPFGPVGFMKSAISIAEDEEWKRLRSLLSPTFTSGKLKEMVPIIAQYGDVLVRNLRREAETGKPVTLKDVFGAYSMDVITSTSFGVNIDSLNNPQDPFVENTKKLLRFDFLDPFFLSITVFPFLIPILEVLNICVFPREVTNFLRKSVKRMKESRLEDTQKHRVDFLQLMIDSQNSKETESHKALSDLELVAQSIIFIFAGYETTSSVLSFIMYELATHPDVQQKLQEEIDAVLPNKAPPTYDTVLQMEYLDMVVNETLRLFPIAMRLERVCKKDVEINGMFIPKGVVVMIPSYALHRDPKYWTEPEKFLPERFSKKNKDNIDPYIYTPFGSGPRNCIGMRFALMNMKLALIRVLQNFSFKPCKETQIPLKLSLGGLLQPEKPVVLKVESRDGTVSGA

On to `CC(C)n1c(=O)cc(N[C@@H](C)c2ccccc2)[nH]c1=O` [mavacamten, (S)-3-Isopropyl-6-((1-phenylethyl)amino)pyrimidine-2,4(1H,3H)-dione], for which the “QTc interval in HCM patients” value in the series on HCM patients is “does not suggest clinically relevant increases in the QTc interval”. Moreover, the “Metabolism through CYP2C19” value at CYP2C19 [1] amounted to 74%. The “Metabolism through CYP2C9” value on CYP2C9 is recorded as 8%. For the same compound, at CYP2B6, the “Inhibition of CYP2B6” value is listed as “does not inhibit”. The “Metabolism through CYP3A4” value at CYP3A4 is on record as 18%. On CYP2C19 [2], the “Increase in mavacamten AUCinf” value was 48%. Moreover, the “Plasma exposure (AUC) at the NOAEL vs human exposure at the MRHD” value with dogs is listed as 0.3 times. Besides, in the series with virtual oHCM patients, the “patients excluded/permanently discontinued overall” value is recorded as below 0.5%. Besides, the “Pharmacokinetics in specific populations” value in series [3] (age 18-82 years, sex, race, ethnicity, mild to moderate renal impairment) is “No clinically significant differences”. In addition, the “Effect of food on pharmacokinetics” value in [3] (high fat meal) is “No clinically significant differences”. In series [3] (multiple once-daily doses of 1 mg to 15 mg), the “Dose proportionality of exposure” value was “increases generally dose proportionally”. Moreover, the “Higher exposure in patients with HCM compared to healthy subjects” value in series [3] (same dose level) was 170%.
